According to PubChem BioAssay (NCI):
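Method: 48-hour compound exposure of cells in 96-well plates, five concentrations, linear interpolation of endpoints. GI50 is the concentration that inhibits growth by half. TGI denotes the concentration required for complete inhibition of growth.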

Tests used:
Assay in all cases: DTP human tumour cell line panel, 48 h
786-0 renal = test system: 786-0 renal
A498 renal = test system: A498 renal
A549 NSCLC = test system: A549 NSCLC
ACHN renal = test system: ACHN renal
BT-549 breast = test system: BT-549 breast
CAKI-1 renal = test system: CAKI-1 renal
CCRF-CEM leukemia = test system: CCRF-CEM leukemia
COLO 205 colon = test system: COLO 205 colon
DU-145 prostate = test system: DU-145 prostate
EKVX NSCLC = test system: EKVX NSCLC
HCC-2998 colon = test system: HCC-2998 colon
HCT-116 colon = test system: HCT-116 colon
HCT-15 colon = test system: HCT-15 colon
HOP-62 NSCLC = test system: HOP-62 NSCLC
HOP-92 NSCLC = test system: HOP-92 NSCLC
HS 578T breast = test system: HS 578T breast
HT29 colon = test system: HT29 colon
IGROV1 ovarian = test system: IGROV1 ovarian
K-562 leukemia = test system: K-562 leukemia
KM12 colon = test system: KM12 colon
LOX IMVI melanoma = test system: LOX IMVI melanoma
MALME-3M melanoma = test system: MALME-3M melanoma
MCF7 breast = test system: MCF7 breast
MDA-MB-231 breast = test system: MDA-MB-231 breast
MDA-MB-435 = test system: MDA-MB-435
MOLT-4 leukemia = test system: MOLT-4 leukemia
NCI-H226 lung = test system: NCI-H226 lung
NCI-H23 lung = test system: NCI-H23 lung
NCI-H460 lung = test system: NCI-H460 lung
NCI-H522 lung = test system: NCI-H522 lung
NCI/ADR-RES ovarian = test system: NCI/ADR-RES ovarian
OVCAR-3 ovarian = test system: OVCAR-3 ovarian
OVCAR-4 ovarian = test system: OVCAR-4 ovarian
OVCAR-5 ovarian = test system: OVCAR-5 ovarian
OVCAR-8 ovarian = test system: OVCAR-8 ovarian
PC-3 prostate = test system: PC-3 prostate
RPMI-8226 leukemia = test system: RPMI-8226 leukemia
RXF 393 renal = test system: RXF 393 renal
SF-268 CNS = test system: SF-268 CNS
SF-295 CNS = test system: SF-295 CNS
SF-539 CNS = test system: SF-539 CNS
SK-MEL-2 melanoma = test system: SK-MEL-2 melanoma
SK-MEL-28 melanoma = test system: SK-MEL-28 melanoma
SK-MEL-5 melanoma = test system: SK-MEL-5 melanoma
SK-OV-3 ovarian = test system: SK-OV-3 ovarian
SN12C renal = test system: SN12C renal
SNB-19 CNS = test system: SNB-19 CNS
SNB-75 CNS = test system: SNB-75 CNS
SR leukemia = test system: SR leukemia
SW-620 colon = test system: SW-620 colon
T-47D breast = test system: T-47D breast
TK-10 renal = test system: TK-10 renal
U251 CNS = test system: U251 CNS
UACC-257 melanoma = test system: UACC-257 melanoma
UACC-62 melanoma = test system: UACC-62 melanoma
UO-31 renal = test system: UO-31 renal

Cn1cccc1-c1cc(-c2ccc(Br)cc2)[nH]c(=O)c1C#N was tested, and the GI50 (786-0 renal) was > 100 µM, the TGI (786-0 renal) was > 100 µM and the GI50 (A498 renal) was 54.4 µM. The TGI (A498 renal) was > 100 µM, the GI50 (A549 NSCLC) was > 100 µM and the TGI (A549 NSCLC) was > 100 µM. For the same compound, the GI50 (ACHN renal) was > 100 µM, the TGI (ACHN renal) was > 100 µM and the GI50 (BT-549 breast) was 85.2 µM. For the same compound, the TGI (BT-549 breast) was > 100 µM, the GI50 (CAKI-1 renal) was > 100 µM and the TGI (CAKI-1 renal) was > 100 µM. The GI50 (CCRF-CEM leukemia) was > 100 µM, the TGI (CCRF-CEM leukemia) was > 100 µM and the GI50 (COLO 205 colon) was > 100 µM. For the same compound, the TGI (COLO 205 colon) was > 100 µM, the GI50 (DU-145 prostate) was > 100 µM and the TGI (DU-145 prostate) was > 100 µM. The GI50 (EKVX NSCLC) was 34.5 µM, the TGI (EKVX NSCLC) was > 100 µM and the GI50 (HCC-2998 colon) was > 100 µM. For the same compound, the TGI (HCC-2998 colon) was > 100 µM, the GI50 (HCT-116 colon) was > 100 µM and the TGI (HCT-116 colon) was > 100 µM. The GI50 (HCT-15 colon) was > 100 µM, the TGI (HCT-15 colon) was > 100 µM and the GI50 (HOP-62 NSCLC) was > 100 µM. For the same compound, the TGI (HOP-62 NSCLC) was > 100 µM, the GI50 (HOP-92 NSCLC) was 27.8 µM and the TGI (HOP-92 NSCLC) was > 100 µM. For the same compound, the GI50 (HS 578T breast) was > 100 µM, the TGI (HS 578T breast) was > 100 µM and the GI50 (HT29 colon) was > 100 µM. The TGI (HT29 colon) was > 100 µM, the GI50 (IGROV1 ovarian) was 77.2 µM and the TGI (IGROV1 ovarian) was > 100 µM. The GI50 (K-562 leukemia) was > 100 µM, the TGI (K-562 leukemia) was > 100 µM and the GI50 (KM12 colon) was > 100 µM. The TGI (KM12 colon) was > 100 µM, the GI50 (LOX IMVI melanoma) was > 100 µM and the TGI (LOX IMVI melanoma) was > 100 µM. The GI50 (MALME-3M melanoma) was > 100 µM, the TGI (MALME-3M melanoma) was > 100 µM and the GI50 (MCF7 breast) was > 100 µM. The TGI (MCF7 breast) was > 100 µM, the GI50 (MDA-MB-231 breast) was 82.5 µM and the TGI (MDA-MB-231 breast) was > 100 µM. For the same compound, the GI50 (MDA-MB-435) was > 100 µM, the TGI (MDA-MB-435) was > 100 µM and the GI50 (MOLT-4 leukemia) was 57.1 µM. For the same compound, the TGI (MOLT-4 leukemia) was > 100 µM, the GI50 (NCI-H226 lung) was > 100 µM and the TGI (NCI-H226 lung) was > 100 µM. The GI50 (NCI-H23 lung) was > 100 µM, the TGI (NCI-H23 lung) was > 100 µM and the GI50 (NCI-H460 lung) was > 100 µM. The TGI (NCI-H460 lung) was > 100 µM, the GI50 (NCI-H522 lung) was 82.1 µM and the TGI (NCI-H522 lung) was > 100 µM. For the same compound, the GI50 (NCI/ADR-RES ovarian) was > 100 µM, the TGI (NCI/ADR-RES ovarian) was > 100 µM and the GI50 (OVCAR-3 ovarian) was 85.8 µM. The TGI (OVCAR-3 ovarian) was > 100 µM, the GI50 (OVCAR-4 ovarian) was > 100 µM and the TGI (OVCAR-4 ovarian) was > 100 µM. The GI50 (OVCAR-5 ovarian) was > 100 µM, the TGI (OVCAR-5 ovarian) was > 100 µM and the GI50 (OVCAR-8 ovarian) was > 100 µM. The TGI (OVCAR-8 ovarian) was > 100 µM, the GI50 (PC-3 prostate) was > 100 µM and the TGI (PC-3 prostate) was > 100 µM. The GI50 (RPMI-8226 leukemia) was > 100 µM, the TGI (RPMI-8226 leukemia) was > 100 µM and the GI50 (RXF 393 renal) was > 100 µM. The TGI (RXF 393 renal) was > 100 µM, the GI50 (SF-268 CNS) was > 100 µM and the TGI (SF-268 CNS) was > 100 µM. For the same compound, the GI50 (SF-295 CNS) was > 100 µM, the TGI (SF-295 CNS) was > 100 µM and the GI50 (SF-539 CNS) was 89.3 µM. For the same compound, the TGI (SF-539 CNS) was > 100 µM, the GI50 (SK-MEL-2 melanoma) was > 100 µM and the TGI (SK-MEL-2 melanoma) was > 100 µM. For the same compound, the GI50 (SK-MEL-28 melanoma) was > 100 µM, the TGI (SK-MEL-28 melanoma) was > 100 µM and the GI50 (SK-MEL-5 melanoma) was > 100 µM. For the same compound, the TGI (SK-MEL-5 melanoma) was > 100 µM, the GI50 (SK-OV-3 ovarian) was > 100 µM and the TGI (SK-OV-3 ovarian) was > 100 µM. The GI50 (SN12C renal) was > 100 µM, the TGI (SN12C renal) was > 100 µM and the GI50 (SNB-19 CNS) was > 100 µM. The TGI (SNB-19 CNS) was > 100 µM, the GI50 (SNB-75 CNS) was 25.4 µM and the TGI (SNB-75 CNS) was > 100 µM. The GI50 (SR leukemia) was > 100 µM, the TGI (SR leukemia) was > 100 µM and the GI50 (SW-620 colon) was > 100 µM. The TGI (SW-620 colon) was > 100 µM, the GI50 (T-47D breast) was > 100 µM and the TGI (T-47D breast) was > 100 µM. The GI50 (TK-10 renal) was > 100 µM, the TGI (TK-10 renal) was > 100 µM and the GI50 (U251 CNS) was > 100 µM. For the same compound, the TGI (U251 CNS) was > 100 µM, the GI50 (UACC-257 melanoma) was > 100 µM and the TGI (UACC-257 melanoma) was > 100 µM. The GI50 (UACC-62 melanoma) was 49.2 µM, the TGI (UACC-62 melanoma) was > 100 µM and the GI50 (UO-31 renal) was 69.1 µM. For the same compound, the TGI (UO-31 renal) was > 100 µM.
